Laboratory results from patent US20240216344A1, “THIAZOLIDINEDIONE ANALOGS FOR THE TREATMENT OF NAFLD AND METABOLIC DISEASES” (Cirius Therapeutics, Inc., priority 2019, published 2024).
Like-named read-outs stand apart in the source and are kept apart here.

Assays:
patients with NASH [1] = settings: cited from earlier work
patients with NASH [2] = settings: cited from earlier work; remark: listed apart in the source
patients with NASH [3] = assay: Meta-analysis of 17 NASH clinical trials: change from baseline in LFTs and biomarkers by study arm, composite outcome; assay type: in vivo, human; settings: 17 NASH clinical trials
Procedure: Meta-regressions of NASH clinical trials were performed to examine associations between biomarker and histological changes within treatment groups, and to additionally examine associations between treatment effects on biomarkers and on liver histology. Trials that met the following criteria were included: • Randomized controlled clinical trial • Paired biopsies performed at baseline and follow-up, scored using the NASH CRN system.
• Published results at baseline, follow-up, or changes from baseline for any the following liver injury markers or biomarkers: alanine aminotransferase (ALT), aspartate aminotransferase (AST), alkaline phosphatase, hemoglobin A1c (HbA1c), gamma-glutamyltransferase (GGT), insulin, cytokeratin-18 (CK-18), or Enhanced Liver Fibrosis (ELF) score. Variables selected were based on variables whose change was commonly reported in multiple studies. • Changes in histological scores for ballooning, inflammation, steatosis, and fibrosis, or the pre-determined endpoints of NASH resolution without worsening fibrosis or improvement in fibrosis with no worsening of NASH.
All results from a search of PubMed for the keywords (“nonalcoholic steatohepatitis” or “non-alcoholic steatohepatitis”) and (“clinical trial” or “randomized”) and filtered for “Clinical Trial” were reviewed. EudraCT and ClinicalTrials.gov were searched for the keyword “nonalcoholic steatohepatitis” with results further filtered for phase 2 or 3, interventional, terminated or completed trials. These three sources returned 265 (PubMed), 153 (ClinicalTrials.gov), and 56 (EudraCT) results, which were each individually reviewed for inclusion in the analysis. Data extracted by one analyst from each source that included means and SDs at baseline, end of study, and changes from baseline to end of study for continuous variables were verified and corrected by a second analyst. Where SDs were not available, any provided estimate of variation was used to derive the SD where possible; a plot-digitizer program was used where data were presented in figures only. Data for dichotomous endpoints were extracted as the number of subjects with the event and corresponding sample size.
Random effects weighted least squares meta-regressions with inverse variance weighting were used to examine the association of changes in ALT, AST, CK-18, HbA1c, fasting insulin levels, ELF, alkaline phosphatase and GGT with biopsy outcomes. CK-18[M30] was measured in all studies except EMMINENCE where CK-18[M651 was reported. These associations were assessed at an individual cohort level (within treatment group), as well as based on the treatment effect. Percent change from baseline in liver injury makers and biomarkers was used as the predictor when examining the associations in the individual cohorts with outcomes while the treatment ratio, the ratio of active to placebo with respect to the relative changes from baseline, was used as the predictor when assessing the association with the treatment effect on outcomes. Standardized mean changes (mean/SD) or standardized mean treatment differences (mean difference/pooled SD) were used for continuous outcomes and Freeman-Tukey double arcsine transformed proportions or log odds ratios were used for dichotomous outcomes. Meta-regression results were computed using the metafor package available in R. P-values <0.05 were considered statistically significant.
From the meta-regression results, ranks for the association with responses and treatment effects for each histologic outcome (changes in ballooning, inflammation, steatosis, and fibrosis; NASH resolution without worsening of fibrosis, and fibrosis improvement without worsening of NAS) were assigned across seven biomarkers (AST, GGT, HbA1c, insulin, CK-18, ELF, and alkaline phosphatase) for both the slope and the mediator p-value (ranks 1-7, with 7 assigned to the biomarker with the greatest slope or lowest p-value). An average rank across all outcomes was then assigned to each biomarker. […]

[4] = PIVENS, Vitamin E arm, follow-up 22 months
[5] = GOLDEN trial, Elafibranor 120 mg
[6] = GOLDEN, 80 mg, follow-up 12 months
[7] = GOLDEN, 120 mg, follow-up 12 months
[8] = MADRIGAL trial, Resmetirom 80 mg
[9] = MADRIGAL, 80 mg, follow-up 9 months
[10] = ARREST, 400 mg, follow-up 12 months
[11] = ARREST, 600 mg, follow-up 12 months

## Vitamin E
Patients with NASH [1]; PIVENS trial, Vitamin E
  Change from Baseline, mean: Ballooning: −0.30
  Change from Baseline, mean: Fibrosis: −0.30
  Change from Baseline, mean: Inflammation: −0.60
  Change from Baseline, mean: Steatosis: −0.70
  NASH Resolution: 30/84
Patients with NASH [2]; [4]
  % Change from Baseline ALT: −43.02%
  % Change from Baseline AST: −36.10%
  % Change from Baseline Alk Phos: −12.08%
  % Change from Baseline GGT: −25.00%
  % Change from Baseline Insulin: 2.73%

## CC(C)c1cc(Oc2c(Cl)cc(-n3nc(C#N)c(=O)[nH]c3=O)cc2Cl)n[nH]c1=O [resmetiron, reference compound]
Patients with NASH [3]
  treatment effect on the surrogate endpoint (weighted average of changes in AST, CK-18, HbA1c): largest treatment effects

## CSc1ccc(C(=O)/C=C/c2cc(C)c(OC(C)(C)C(=O)O)c(C)c2)cc1 [Elafibranor]
Patients with NASH [1]; GOLDEN trial, Elafibranor 80 mg
  NASH Resolution: 12/93
Patients with NASH [1]; [5]
  Change from Baseline, mean: Ballooning: −0.07
  Change from Baseline, mean: Fibrosis: −0.07
  Change from Baseline, mean: Inflammation: −0.32
  Change from Baseline, mean: Steatosis: 0.02
  NASH Resolution: 17/89
Patients with NASH [2]; [6]
  % Change from Baseline ALT: −9.72%
  % Change from Baseline AST: −16.87%
  % Change from Baseline Alk Phos: −25.87%
  % Change from Baseline GGT: −34.54%
Patients with NASH [2]; [7]
  % Change from Baseline ALT: −19.75%
  % Change from Baseline AST: −30.22%
  % Change from Baseline Alk Phos: −26.41%
  % Change from Baseline GGT: −41.68%

## CC(C)c1cc(Oc2c(Cl)cc(-n3nc(C#N)c(=O)[nH]c3=O)cc2Cl)n[nH]c1=O [Resmetirom]
Patients with NASH [1]; [8]
  Fibrosis Improvement: 21/73
  NASH Resolution: 18/73
Patients with NASH [2]; [9]
  % Change from Baseline ALT: −30.80%
  % Change from Baseline AST: −21.08%
  % Change from Baseline Alk Phos: 7.85%
  % Change from Baseline CK-18: −35.15%
  % Change from Baseline ELF: −7.17%
  % Change from Baseline GGT: −18.76%
  % Change from Baseline HbA1c: 0.63%

## CCCCCCCCCCCCCCCCCCCC(=O)N[C@H]1CC[C@@]2(C)[C@@H](C1)C[C@@H](O)[C@@H]1[C@@H]2C[C@H](O)[C@]2(C)[C@@H]([C@H](C)CCC(=O)O)CC[C@@H]12 [Aramachol, reference compound]
Patients with NASH [1]; ARREST trial, Aramchol 400 mg
  Fibrosis Improvement: 17/80
  NASH Resolution: 6/80
Patients with NASH [1]; ARREST trial, Aramchol 600 mg
  Fibrosis Improvement: 23/78
  NASH Resolution: 13/78
Patients with NASH [2]; [10]
  % Change from Baseline ALT: −18.06%
  % Change from Baseline HbA1c: −0.62%
Patients with NASH [2]; [11]
  % Change from Baseline ALT: −32.02%
  % Change from Baseline HbA1c: −1.79%
Patients with NASH [3]
  treatment effect on the surrogate endpoint (weighted average of changes in AST, CK-18, HbA1c): largest treatment effects
